Read-outs that look alike come from different tables or passages of the source.

Consider nine molecules from US6569870B1, “Fluorinated quinolones as antimitotic and antitumor agents” (The University of North Carolina at Chapel Hill, priority 2000, dated 2003).

Series [1] has as its system T1, tubulin.
T1 construct: ITP IC50 ± SD; other: 10 μM tubulin; ICB (% inhib ± SD); effect on tubulin polymerization; other: relative to combretastatin A-4; Ha
To be noted: data from literature (Kuo 1993; Hamel 1996; Xia 1998); read-out: ITP IC50 ± SD; cited from earlier work.

The subject of the next series is SK-Me15, melanoma. Briefly: NCI HTCL in vitro screen, SK-Me15. The format is cell-based, human. The settings on record: log concentration that reduced cell growth by 50%; for GI50: Homo sapiens, read-out: Cytotoxicity log GI50, SK-Me15 (converted). The source says: (§1) This assay involves determination of a test agent's effect on growth parameters against a panel of approximately 60 human tumor cell lines, mostly derived from solid tumors.

Series [2] concerns HCT-116, colon cancer cell line. Kind of series: NCI HTCL in vitro screen, HCT116. The format is cell-based, human. The settings on record: for GI50: Homo sapiens, HCT-116, log concentration that reduced cell growth by 50%, read-out: Cytotoxicity log GI50, HCT116 (converted).
Text: as §1

The test system of series [3] is T1, tubulin. Briefly: Inhibition of tubulin polymerization (ITP). The format is biochemical. The settings on record: for IC50: 10 μM tubulin, read-out: ITP IC50 ± SD.
The subject of series [4] is SF-268 CNS tumor cell line. Kind of series: NCI HTCL in vitro screen, SF-268. To be noted: Homo sapiens, log concentration that reduced cell growth by 50%, read-out: Cytotoxicity log GI50, SF-268 (converted). The format is cell-based.
Text: as §1

Series [5] relates to panel of approximately 60 human tumor cell lines. Kind of series: NCI HTCL in vitro screen, mean over all cell lines. The format is cell-based. The settings on record: mean over all 60 cell lines; for GI50: Homo sapiens, read-out: Mean log GI50 (converted). As for the experimental part: Compounds 1-7 and 13 were tested in National Cancer Institute's HTCL screen (M. Grever et al., Seminars Oncol. 1992, 19, 622-638; A. Monks et al., J. Natl. Cancer Inst. 1991, 83, 757-766). This assay involves determination of a test agent's effect on growth parameters against a panel of approximately 60 human tumor cell lines, mostly derived from solid tumors.

Series [6] deals with K-562, leukemia cell line. Kind of series: NCI 60 human tumor cell line (HTCL) in vitro screen, K562. To be noted: log concentration that reduced cell growth by 50%, read-out: Cytotoxicity log GI50, K562 (converted). Type of series: cell-based.
Text: as §1

Series [7] concerns NCI-H226, non-small cell lung cancer cell line. Kind of series: NCI HTCL in vitro screen, NCI-H226. The format is cell-based, human. The settings on record: for GI50: Homo sapiens, NCI-H226, log concentration that reduced cell growth by 50%, read-out: Cytotoxicity log GI50, NCI-H226 (converted).
Text: as §1

For series [8], the system named is SF-295 CNS tumor cell line. Kind of series: NCI HTCL in vitro screen, SF-295. To be noted: for GI50: Homo sapiens, SF-295, log concentration that reduced cell growth by 50%, read-out: Cytotoxicity log GI50, SF-295 (converted). Type of series: cell-based, human.
Text: as §1

The subject of series [9] is RXF-393, renal cancer cell line. Kind of series: NCI HTCL in vitro screen, RXF-393. Type of series: cell-based, human. To be noted: log concentration that reduced cell growth by 50%; for GI50: Homo sapiens, RXF 393, read-out: Cytotoxicity log GI50, RXF-393 (converted).
Text: as §1

Series [10] concerns OVCAR-3, ovarian cancer cell line. Briefly: NCI HTCL in vitro screen, OVCAR-3. Type of series: cell-based, human. To be noted: for GI50: Homo sapiens, OVCAR-3, log concentration that reduced cell growth by 50%, read-out: Cytotoxicity log GI50, OVCAR-3 (converted).
Text: as §1

Series [11] concerns OVCAR-3 ovarian cell line. To be noted: mice bearing OVCAR-3 tumor; previously reported (background); cited from earlier work.
In series [12] the test system is tubulin. To be noted: previously reported (background); read-out: inhibition of tubulin polymerization IC50; cited from earlier work.
Series [13] concerns panel of approximately 60 human tumor cell lines. The settings on record: previously reported (L. Li et al. 1994); cited from earlier work.
Series [14] concerns T1, tubulin. Kind of series: Inhibition of [3H]colchicine binding to tubulin (ICB). The settings on record: for ICB (% inhib ± SD): 5 μM [3H]colchicine, 1 μM tubulin.

`O=c1[nH]c(C=Cc2ccccc2)nc2ccccc12` [Compound 18, 2-styrylquinazolin-4(3H)-one]: the IC50 (as a rule, the point on the concentration scale where inhibition reaches its midpoint) with tubulin [1] was 5 ± 0.6 µM.
Turning to `CCOC(=O)CCCOc1cc(-c2ccccc2F)nc2cc3c(cc12)OCO3` [Compound 4, 2′-Fluoro-6,7-(methylenedioxy)-2-phenyl-4-(O-ethyl 4′-butyrate)quinoline], the melting point (usually the temperature of the solid-liquid transition) lay in the range of 93 to 94 °C. For the same molecule, the 50% growth inhibitory concentration (GI50) (commonly the concentration at which growth is held to half of that of the control) with SK-Me15, melanoma is 57.5 µM. In addition, the GI50 in series [2] is above 100 µM. In the series on tubulin [3], the IC50 was above 40 µM. Further, in series [4], the 50% growth inhibitory concentration (GI50) is above 100 µM. Further, in series [5], the GI50 was 47.9 µM.
On to `O=C(O)CCCOc1cc(-c2ccccc2F)nc2cc3c(cc12)OCO3` [Compound 5, 2′-Fluoro-6,7-(methylenedioxy)-2-phenyl-4-(O-ethyl 4′-butylacetic acid)quinoline], for which the melting point is above 300 °C. For the same molecule, the half-inhibitory concentration (IC50) in the series with tubulin [3] is 12 ± 3 µM. Further, the 50% growth inhibitory concentration (GI50) in series [5] is 4.68 µM.
On to `CCOC(=O)COc1cc(-c2ccccc2F)nc2cc3c(cc12)OCO3` [Compound 2, 2′-Fluoro-6,7-(methylenedioxy)-2-phenyl-4-(O-ethylacetate)quinoline], for which the melting point is 119 to 120 °C. Besides, the GI50 in the series on SK-Me15, melanoma was 72.4 µM. In addition, the GI50 in series [6] is 38 µM. Also, the GI50 in series [2] was 72.4 µM. In addition, the 50% growth inhibitory concentration (GI50) in series [7] is above 100 µM. Besides, in series [8], the GI50 was above 100 µM. Moreover, the IC50 in the series on tubulin [3] is above 40 µM. Besides, in series [4], the GI50 is above 100 µM. Also, the GI50 in [5] was 79.4 µM. Besides, in series [9], the GI50 was above 100 µM.
As for `CC(C)(C)OC(=O)n1c(-c2ccccc2F)cc(=O)c2cc3c(cc21)OCO3` [Compound 7, N-Boc-2′-fluoro-6,7-(methylenedioxy)-2-phenyl-4-quinolone], the GI50 in [6] is above 100 µM; in series [2], 0.0447 µM; in series [10], 32.4 nM; in series [7], 0.0251 µM; in [8] it was 0.117 µM; in series [5] it was 0.589 µM. Moreover, the GI50 in series [9] is above 100 µM. The “cytotoxicity relative to 1, HCT-116” value in [2] (relative to compound 1) is reported as “equipotent with 1”. In [10] (relative to compound 1), the “cytotoxicity relative to 1, OVCAR-3” value is “equipotent with 1”. Also, the “fold more active than 1 against NCI-H226” value in series [7] (relative to compound 1) is given as around 20 fold. In addition, the “cytotoxicity relative to 1, SF-295” value in series [8] (relative to compound 1) is “less active than 1”. In addition, the “effect on tubulin polymerization” value with tubulin [3] is given as “moderate activity”. Also, the IC50 with tubulin [3] turned out to be 3.2 ± 1 µM.
In turn, `O=C(O)COc1cc(-c2ccccc2F)nc2cc3c(cc12)OCO3` [Compound 3, 2′-Fluoro-6,7-(methylenedioxy)-2-phenyl-4-(O-acetic acid)quinoline] returned a melting point above 300 °C. The GI50 in the series with SK-Me15, melanoma is above 100 µM. For the same molecule, the GI50 in series [6] is above 100 µM. The GI50 in series [2] was above 100 µM. Besides, the GI50 in series [10] was above 100000 nM. The GI50 in series [7] was above 100 µM. Also, in series [8], the GI50 was above 100 µM. Besides, in the series on tubulin [3], the half-inhibitory concentration (IC50) is above 20 µM. Moreover, the GI50 in series [4] was above 100 µM. In addition, the concentration for 50% growth inhibition (GI50) in series [5] was above 100 µM. The GI50 in series [9] is above 100 µM.
As to `O=c1cc(-c2ccccc2F)[nH]c2cc3c(cc12)OCO3` [Compound 1, 2′-Fluoro-6,7-(methylenedioxy)-2-phenyl-4-quinolone], the GI50 is 0.0209 µM in the series with SK-Me15, melanoma; 0.0603 µM in series [2]; 81.3 nM in [10]; 0.447 µM in series [7]; 0.055 µM in [8]; 2.29 µM in [4]. For the same molecule, the GI50 in series [5] was 0.135 µM. For the same molecule, the “prolonging the life span of mice bearing the tumor” value in [11] is 130%. In addition, the values for the IC50 with tubulin [12] and in the series on tubulin [3] were 850 nM and 0.68 ± 0.02 µM, respectively. The “average log G150 value in the HTCL screen” value in [13] is −6.47. Besides, the “ICB (% inhib ± SD)” value in the series with tubulin [14] (5 μM inhibitor) was 39 ± 2 % inhib.
On to `Fc1ccccc1-c1cc(=S)c2cc3c(cc2[nH]1)OCO3` [Compound 6, 2′-Fluoro-6,7-(methylenedioxy)-2-phenylquino-4-thione], for which the GI50 with SK-Me15, melanoma was 4.07 µM; in series [6], 56.2 µM; in [2] it was 5.5 µM; in [10], 21400 nM; in [7], 16.6 µM; in series [8], 11.7 µM. The 50% growth inhibitory concentration (GI50) in [4] was 20 µM; in series [5] it was 15.5 µM; in series [9], 29.5 µM.
As to `Oc1cc(-c2ccccc2F)nc2ccc(N3CCCC3)cc12` [Compound 13], the 50% growth inhibitory concentration (GI50) in the series on SK-Me15, melanoma is below 0.01 µM; in series [6] it was 0.0324 µM; in series [4], 0.0389 µM; in series [9], below 0.01 µM. In the series with SK-Me15, melanoma, the “Cytotoxicity log GI50, SK-Me15” value was below −8.00 M. Further, the IC50 in the series on tubulin [3] stood at 0.46 µM. For the same molecule, the “Mean log GI50” value in series [5] is given as −7.62 M. In [9], the “Cytotoxicity log GI50, RXF-393” value is below −8.00 M. The “ICB (% inhib ± SD)” value was 76 ± 5 % inhib in the series with tubulin [14] (1 μM inhibitor) and 93 ± 1 % inhib in the series with tubulin [14] (5 μM inhibitor). Also, the “inhibition of [3H]colchicine binding to tubulin” value in the series with tubulin [14] (relative to combretastatin A-4) is given as “nearly as active as the highly potent combretastatin A-4”.
